In this test the target is cAMP and cAMP-inhibited cGMP 3',5'-cyclic phosphodiesterase 10A (Homo sapiens, UniProt Q9Y233). As to the kind of experiment: PDE10A assay. In short, it runs like this:
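Human PDE10A (2 ng/well) preincubated 15 min RT with compound in HEPES pH 7.5, 10 mM MgCl2, BSA, then reacted 15 min with 50 nM [3H]cGMP/cGMP substrate. Stopped with Y-Si SPA beads; bound radioactivity counted, IC50 from four-parameter logistic, pIC50 = −log10(IC50).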

This is an account of results in BindingDB's records for doi:10.1007/s10822-022-00478-x (Roche Innovation Center Basel, F. Hoffmann-La Roche Ltd., 2022).

In turn, `Cc1nc2ccccc2nc1CCc1nc(-c2ccccc2)cn1CC1CC1` [Roche-Dataset for PDE10A, Compound 62] had an IC50 of 9.29 nM.

In the case of `Cc1ncc(C)n2nc(/C=C/c3nc(-c4cc[nH]n4)nn3C)nc12` [Roche-Dataset for PDE10A, Compound 618], the IC50 was found to be 46 nM.

Compound `O=C(N[C@@H]1CCN(c2ccc(Cl)nn2)C1)c1nc(C2CC2)ccc1Nc1cncnc1` [Roche-Dataset for PDE10A, Compound 923] had a concentration for half-maximal inhibition (IC50) of 12 nM.

Compound `CNC(=O)c1c(NC(=O)c2nc(C3CC3)cnc2Nc2cncnc2)cnn1CCC(F)(F)F` [US8703768, 173] displayed an IC50 of 19 nM.

On to `Cn1cc(-c2ccccc2)nc1CCc1nc2cccc(Cl)c2c(=O)[nH]1` [Roche-Dataset for PDE10A, Compound 52], for which the IC50 was determined as 122 nM.

The compound `Cc1nc(-c2ccccc2Cl)n2c3ccc(Cl)cc3c(=O)n(C)c12` [Roche-Dataset for PDE10A, Compound 967] showed an IC50 of 15 nM.

`Cn1cc(-c2ccccc2)nc1C#Cc1ccc2nc(C(F)(F)F)cn2n1` [US10399985, Example 8] came in with an IC50 of 12 nM.

Compound `Cc1cc(Cl)cc2c(=O)[nH]c(CCc3nc(-c4ccccc4)cn3C)nc12` [Roche-Dataset for PDE10A, Compound 70] registered an IC50 of 81 nM.

Take `O=C(NCc1ccc(F)c(F)c1)c1nc(C2CC2)cnc1Nc1cncnc1` [Roche-Dataset for PDE10A, Compound 799]: the IC50 turned out to be 376 nM.

With `CNC(=O)c1cc2[nH]c(-c3ccccc3)nc2cc1NC(=O)c1ccn(C)n1` [Roche-Dataset for PDE10A, Compound 526], 111 nM corresponded to half-maximal inhibition (IC50).

Regarding `Cn1nc(NC(=O)c2c(C(=O)N3CCC3)cnn2C)cc1C(=O)N1CCCCC1` [Roche-Dataset for PDE10A, Compound 941], the midpoint of inhibition, the IC50, lay at 10000 nM.

Regarding `O=C(NCC1(c2ccccc2)CCOCC1)c1nc(C2CC2)cnc1Nc1cncnc1` [Roche-Dataset for PDE10A, Compound 924], it took 1160 nM to reach half-maximal inhibition (IC50).

In turn, `CS(=O)(=O)N1CCC(NC(=O)c2nc(C3CC3)cnc2Nc2cncnc2)CC1` [Roche-Dataset for PDE10A, Compound 1072] returned an IC50 of 2860 nM.

The compound `Cn1ncc(C(=O)N2CCCC2)c1C(=O)Nc1ccn2nc(N3CCOCC3)nc2c1` [Roche-Dataset for PDE10A, Compound 402] returned an IC50 of 3.25 nM.

`CCCc1cccc(NC(=O)c2nc(C3CC3)cnc2Nc2cncnc2)n1` [Roche-Dataset for PDE10A, Compound 963] yielded an IC50 of 16 nM.

In turn, `CCN(C)C(=O)c1cnn(C)c1C(=O)Nc1ccn2cc(-c3cccc(OCC(=O)OC)c3)nc2n1` [Roche-Dataset for PDE10A, Compound 20] had an IC50 of 7.93 nM.

`Cn1cc(-c2ccccc2)nc1CCc1cccc(-c2ccccn2)n1` [Roche-Dataset for PDE10A, Compound 237] yielded an IC50 of 2420 nM.

For the compound `CS(=O)(=O)c1ccccc1NC(=O)c1nc(C2CC2)ccc1Nc1cncnc1` [Roche-Dataset for PDE10A, Compound 1071], inhibition was half-maximal at 27 nM (IC50).

The compound `Cn1ncc(C(=O)N2CCC2)c1C(=O)N[C@@H]1CCn2cc(-c3cccc(Cl)c3)nc2C1` [Roche-Dataset for PDE10A, Compound 161] had an IC50 of 6.59 nM.

In turn, `CCC(=O)c1cc(NC(=O)c2nc(C3CC3)cnc2Nc2cncnc2)ccc1O` [Roche-Dataset for PDE10A, Compound 875] had an IC50 of 26 nM.

`Cc1cncc(-c2nc3cc(NC(=O)c4c(C(=O)N5CCC5)cnn4C)ccn3n2)c1` [Roche-Dataset for PDE10A, Compound 219]: the IC50 was 11 nM.

Take `Cc1c(Cl)cc(C(F)F)c2nc(CCc3nc(N4CCCC4)nn3C)nn12` [Roche-Dataset for PDE10A, Compound 187]: the IC50 was 1.67 nM.

In the case of `CCOC(=O)c1cnn(C)c1C(=O)Nc1ccc2nc(N3CCOCC3)nn2c1` [Roche-Dataset for PDE10A, Compound 1117], the midpoint of inhibition, the IC50, lay at 1990 nM.

Regarding `CN(c1cncnc1)c1ccc(C2CC2)nc1C(=O)N[C@@H]1CCN(c2ccc(Br)cn2)C1` [Roche-Dataset for PDE10A, Compound 95], the IC50 came out at 8340 nM.

On to `CN(C)CCn1nc(-c2ccccn2)cc1NC(=O)c1nc(C2CC2)ccc1Nc1cncnc1` [US8470820, 12], for which the IC50 was 1.05 nM.

On to `Cc1ncc(C)n2nc(/C=C/c3nc(N4CC[C@@H](NC(=O)OC(C)(C)C)C4)nn3C)nc12` [Roche-Dataset for PDE10A, Compound 1132], for which half-maximal inhibition (IC50) required 752 nM.

In the case of `Cc1cnc(C)n2nc(CCc3ncnn3C)nc12` [Roche-Dataset for PDE10A, Compound 1130], the IC50 was 2420 nM.

As to `Cc1c(Cl)cc(C(F)(F)F)c2nc(CCc3nc(N4CCCC4)nn3C)nn12` [Roche-Dataset for PDE10A, Compound 157], the IC50 is 1.1 nM.

The compound `COc1ccccc1-c1cn2c(n1)C[C@H](NC(=O)c1c(C(=O)N(C)CCF)cnn1C)CC2` [Roche-Dataset for PDE10A, Compound 351] yielded an IC50 of 173 nM.

Consider `O=C(Nc1cccc(F)c1C(=O)N1CCC1)c1nc(C2CC2)cnc1Nc1cncnc1` [US8703768, 309], for which the IC50 came to 1.67 nM.

In turn, `O=C(c1nc(C2CC2)cnc1Nc1cncnc1)N1CCC(O)(Cc2ccccc2)CC1` [Roche-Dataset for PDE10A, Compound 1044] yielded a 50% inhibitory concentration (IC50) of 10000 nM.

Compound `Cn1ncc(C(=O)N2CCC2)c1C(=O)Nc1ccn2nc(-c3cccnc3)nc2c1` [Roche-Dataset for PDE10A, Compound 281] showed an IC50 of 1.16 nM.

In turn, `Cn1cc(-c2ccccc2)nc1CCc1nc(N2CCOCC2)c2cc(Cl)ccc2n1` [Roche-Dataset for PDE10A, Compound 54] gave an IC50 of 1.08 nM.

Take `Cc1cc(C)n2nc(/C=C/c3nc(Br)nn3C)nc2n1` [Roche-Dataset for PDE10A, Compound 1158]: the IC50 is 10000 nM.

Turning to `CNC(=O)c1c(NC(=O)c2nc(C3CC3)ccc2Nc2cncnc2)cnn1C` [Roche-Dataset for PDE10A, Compound 1053], half-maximal inhibition (IC50) was put at 14 nM.

`O=C(NCc1ccc2nccnc2c1)c1nc(C2CC2)cnc1Nc1cncnc1` [Roche-Dataset for PDE10A, Compound 699] yielded an IC50 of 141 nM.

On to `CN1C(=O)c2ccc(NC(=O)c3nc(C4CC4)ccc3Nc3cncnc3)cc2C1=O` [Roche-Dataset for PDE10A, Compound 849], for which half-maximal inhibition (IC50) was put at 48 nM.

For `Cn1ncc(C(=O)N2CCC2)c1C(=O)Nc1ccc2cc(-c3ccccc3)nn2n1` [Roche-Dataset for PDE10A, Compound 1133], half-maximal inhibition (IC50) required 8.14 nM.

With `CNC(=O)c1cc(Cl)c(C)n2nc(CCc3nc(N4CCCC4)nn3C)nc12` [Roche-Dataset for PDE10A, Compound 273], inhibition was half-maximal at 6160 nM (IC50).

Turning to `O=C(NCCO)c1ncccc1NC(=O)c1nc(C2CC2)cnc1Nc1cncnc1` [US8703768, 271], half-maximal inhibition (IC50) required 0.36 nM.

`Cn1ncc(C(=O)N2CCC2)c1C(=O)Nc1cc2nc(-c3ccccc3)nn2cc1F` [Roche-Dataset for PDE10A, Compound 204] gave an IC50 of 0.78 nM.

`O=C(NCc1ccncn1)c1nc(C2CC2)cnc1Nc1cncnc1` [Roche-Dataset for PDE10A, Compound 1017] returned an IC50 of 768 nM.

The compound `Cn1ncc(C(=O)O)c1C(=O)Nc1ccn2nc(-c3cccnc3F)nc2c1` [Roche-Dataset for PDE10A, Compound 458] came in with an IC50 of 66 nM.

The IC50 is the midpoint of a concentration-inhibition curve. Read a low IC50 as greater potency in that assay.
